Assay results taken from PubChem BioAssay AID179 (DTP/NCI, 2004).

Tested on: CEM cells HIV-1 protection, formazan growth assay
Test: NCI AIDS Antiviral Assay
Conditions: for IC50: measured here: growth of uninfected CEM cells
Outline: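 Soluble formazan readout of cell growth; CEM cells ± HIV-1; 5 drug concs. ≥50% protection → retest; ≥50% again = moderately active; reproducible 100% = confirmed active.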

| SMILES | EC50 [µM] | IC50 [µM] |
| --- | --- | --- |
| O=P1(c2ccccc2)c2ccccc2CCc2ccccc21 | > 200 | 95.5 |
| O=C(Nn1c(-c2ccccc2)nc2ccccc2c1=O)c1ccccc1O | > 200 | 17.4 |
| CC(C1=C(O)c2ccccc2C(=O)C1=O)C1=C(O)c2ccccc2C(=O)C1=O | > 200 | 50.1 |
| Cc1cccc(NC(=S)N/N=C(/c2ccccc2)c2ccccn2)c1 | > 0.2 | 0.0933 |
| C=CCn1c(-c2ccc(Cl)cc2)csc1=Nc1ccccc1OC | > 200 | > 200 |
